Results as given in US8173673B2, “Biofilm-inhibiting effect and anti-infective activity of N,C-linked aryl isoquinolines and the use thereof” (Julius-Maximilians-Universitaet Wuerzburg, priority 2006, dated 2012).
Where a name gives a salt, the structure may show the parent alone.

Columns and labels:
Pseudomonas aeruginosa = experiment: MIC, micro-bouillon-dilution method; assay type: cell-based
Text: (§1) Examination of the Inhibitory Effect Through Determining of the Minimal Inhibitory Concentration (MIC) in the Micro-Bouillon-Dilution Methods
(§2) In this method, a series of dilutions with decreasing concentrations of drug is produced in 96-well-microtiter plates from a stock solution of the compound. The drug-containing microtiter plate-wells are inoculated with a defined amount of the pathogen to be tested, and cultivated. The concentration of the compound in the well, where no more turbidity of the medium due to a growth of the pathogens could be optically detected is given as the MIC.
(§3) The test strains were inoculated in Luria-Bertani-medium, and grown over night in a shaking incubator at 37° C. until stationary growth phase. On the following day, the culture was diluted 1:100 with fresh Müller-Hinton-bouillon (MH-Medium) containing 5% NaCl (w/v), and until logarithmic growth phase incubated again at 37° C. inkubiert. The optical density of the bacterial suspension was photometrically measured at 550 nm, and the suspension adjusted at 2×10^5 colony forming units/ml (CFU/ml). In the meantime, a geometric series of dilutions of the test compounds was produced in MH-medium. 100 μl of each dilution were pipetted into the corresponding wells of a 96-well-polystyrene-flat bottom-microtiter plate. The plates were inoculated with 100 μl of the pre-prepared inoculum, and cultured in the incubator for 18 hours at 37° C. On the following day, the optical density of the bacterial cultures in the wells was determined with an ELISA-reader at a wavelength of 550 nm, compared to the blank value (=non-inoculated MH-medium). The concentrations of the compound in the last wells, wherein no more growth of the pathogens could be detected, is given as the MIC. A low MIC indicates a high inhibitory activity of a compound, whereas a high concentration indicates a low activity.
(§4) The MIC of, for example, A was tested for the following germs and strains: • Staphylococcus aureus 325: Biofilm-positive clinical isolate from blood culture, wild type • Staphylococcus aureus NCTC 8325: Biofilm-negative reference strain, genome published • Staphylococcus epidermidis RP62A: Biofilm-positive, multi resistant reference strain • Escherichia coli 536: urinary tract isolate, reference strain • Pseudomonas aeruginosa: environmental isolate • Candida albicans 5314: clinical isolate

[1] = test system: Staphylococcus epidermidis RP62A; experiment: MIC, micro-bouillon-dilution method; assay type: cell-based; conditions: 18 hours at 37° C.
Text: as §1, §2, §3, §4

Candida albicans 5314 = experiment: MIC, micro-bouillon-dilution method; assay type: cell-based; conditions: Candida albicans 5314, 18 hours at 37° C.
Text: as §1, §2, §3, §4

Escherichia coli 536 = experiment: MIC, micro-bouillon-dilution method; assay type: cell-based; conditions: Escherichia coli 536, 18 hours at 37° C.
Text: as §1, §2, §3, §4

[2] = test system: Staphylococcus aureus 325; experiment: MIC, micro-bouillon-dilution method; assay type: cell-based; conditions: Staphylococcus aureus 325, 18 hours at 37° C.
Text: as §1, §2, §3, §4

[3] = test system: Staphylococcus aureus NCTC 8325; experiment: MIC, micro-bouillon-dilution method; assay type: cell-based; conditions: Staphylococcus aureus NCTC 8325, 18 hours at 37° C.
Text: as §1, §2, §3, §4

[4] = test system: 293 kidney epithelial cells; experiment: Cytotoxicity by the Alamar-Blue assay; assay type: cell-based
Method: Determination of the Cytotoxicity by the Alamar-Blue®-Assay with the Example of Substance A
The cytotoxicity of A was determined by means of an Alamar-Blue®-assay. First, a geometric series of dilutions of A in cellular medium (293 kidney epithelial cells; without phenol red) with 1% DMSO was produced, and in a 96-well-polystyrol-flat bottom-microtiter plate vorgelegt. The cells were trypsinized, and washed once. For the test, a cellular suspension of 10^5 cells/ml was prepared, and 20 μl thereof were pipetted into the wells. The final volume was 200 μl. After 24 h incubation at 37° C. and 5% CO2, 20 μl Alamar Blue (Trinova Biochem, Gieβen, Germany) was added into each well, and the microtiter plate was incubated further. The wells that contained the medium and substance, as well as those that only contained cellular suspension (without substance), served as negative or positive control, respectively. The optical density was measured after 24 h and 48 h with an ELISA-reader at the wavelengths 550 nm and 630 nm. The IC50 value for A was calculated following linear interpolation (W. Huber, J. C. Koella Acta Tropica 1993, 55, 257-261).

S. epidermidis RP62A = experiment: Biofilm test on polystyrene surfaces (crystal violet); assay type: cell-based, Staphylococcus epidermidis; conditions: drug concentration of 0.63 μM
Method: Determination of the Formation of Biofilms of Staphylococci on Polystyrene-Surfaces (Biofilm Test)
For determining the effect of a test compound on the formation of biofilms of staphylococci, the biofilm-reference strain S. epidermidis RP62A is inoculated in trypticase-soy-broth (TSB) with a common 0.25% (w/v) glucose concentration (standard-TSB), and grown over night at 37° C. in a shaking incubator until the stationary growth phase. On the next day, the cultures are diluted 1:100 with fresh TSB, and 100 μl of this germ suspension are pipetted into the wells of a 96-well-polystyrol-tissue culture plate with flat bottom (Greiner, Nürtingen, Germany). In the meantime, also a geometric series of dilutions of the test substance is produced in TSB, and also 100 μl of each of these dilutions are added to the den germ suspensions. The plates were incubated at 37° C. in an incubator for 18 hours at 37° C. On the next day, first the growth of the cultures is checked through determining of the optical density at 550 nm by means of an ELISA-reader (see also at MIC-determination), and documented. Then, the cultures are carefully poured out of the wells, and the plates were washed three times with phosphate-buffered saline solution (PBS), in order to remove non-adherent bacteria. […] After drying, the density of the adherent biofilm is determined with an ELISA-reader at a wavelength of 490 nm.

`COc1cc(OC)c2c(C)[n+](-c3ccc(-c4ccc(-[n+]5c(C)cc6cc(OC)cc(OC)c6c5C)cc4)cc3)c(C)cc2c1` [A, N,N′-(1,1′-benzidine)-di-(6,8-dimethoxy-1,3-dimethylisoquinolinium)-salt] was tested, and the “Minimal inhibitory concentrations” value (Pseudomonas aeruginosa; Pseudomonas aeruginosa, 18 hours at 37° C.) was over 160 µM, the growth-inhibiting effect (Pseudomonas aeruginosa; pseudomonades, result in words) was “fully ineffective” and the “Minimal inhibitory concentrations” value [1] was 0.63 µM. For the same compound, the “Minimal inhibitory concentrations” value (Candida albicans 5314) was 1.25 µM, the “Minimal inhibitory concentrations” value (Escherichia coli 536) was 20.00 µM and the “Minimal inhibitory concentrations” value [2] was 0.63 µM. For the same compound, the “Minimal inhibitory concentrations” value [3] was 5.00 µM, the IC50 [4] was 42.4 µM and the “reduction of the formation of biofilms compared to a control without the substance” value (S. epidermidis RP62A) was “about 90%”.
